US20060079510A1, “Use of PARP-1 inhibitors for protecting tumorcidal lymphocytes from apoptosis” (priority 2004, published 2006)
“Also recorded” adds a separate entry of the source.

Experiments:
[1] = test system: peripheral blood lymphocytes; assay: Oxidant-induced cell death in lymphocytes incubated with mononuclear phagocytes or hydrogen peroxide, flow cytometry; format: cell-based, human
Procedure: Peripheral venous blood was obtained as freshly prepared leukopacks from healthy blood donors at the Blood Centre, Sahlgren's Hospital, Göteborg, Sweden, to study the activation characteristics of cytotoxic lymphocytes in the presence and absence of MO, and ROM inhibitors. The blood (65 ml) was mixed with 92.5 ml Iscove's medium, 35 ml 6% Dextran (Kabi Pharmacia, Stockholm, Sweden) and 7.5 ml acid citrate dextrose (ACD) (Baxter, Deerfield, Ill.). After incubation for 15 minutes at room temperature, the supernatant was carefully layered onto Ficoll-Hypaque (Lymphoprep, Myegaard, Norway). Mononuclear cells (MNC) were collected at the interface after centrifugation at 380 g for 15 minutes at room temperature, washed twice in PBS and resuspended in Iscove's medium supplemented with 10% human AB^+ serum. During all further separation of cells, the cell suspensions were kept in siliconized test tubes (Vacuette, Greiner, Stockholm).
The MNC were further separated into lymphocyte and monocyte (MO) populations using the counter-current centrifugal elutriation (CCE) technique originally described by Yasaka and co-workers (Yasaka, T. et al., J. Immunol., 127:1515) with modifications as described in Hansson, M., et al. (J. Immunol., 156: 42 (1996); hereby incorporated by reference). Briefly, the sedimentation rate of cells in a spinning rotor was balanced by a counter-directed flow through the chamber. By slowly increasing the flow rate, fractions of cells of well-defined sizes were collected. The MNC were resuspended in elutration buffer containing 0.5% BSA (ICN Biomedicals Inc., Aurora, Ohio) and 0.1% EDTA (VWR, Göteborg, Sweden) in buffered NaCl and fed into a Beckman J2-21 ultracentrifuge with a JE-6B rotor (Bechman Coulter Inc., Fullerton, Calif.) at 2100 rpm. A fraction with >90% MO was obtained at a flow rate of 19 ml/min. A lymphocyte fraction enriched for NK-cells (CD3^−/56^+ phenotype) and T-cells (CD3^+/56^−) was recovered at flow rates of 14-15 ml/min. This fraction contained <3% MO and consisted of CD3ε^−/56^+ NK-cells (45-50%), CD3ε^+/56^− T-cells (35-40%), CD3ε^−/56^− cells (5-10%), and CD3ε^+/56^+ cells (1-5%), as judged by flow cytometry. In some experiments, dynabeads (Dynal A/S, Oslo, Norway) coated with anti-CD56 were used to obtain purified lymphocyte preparations of T-cells, as described in detail by Hansson, M., et al., incorporated above.
Briefly, lymphocytes were incubated overnight with autologous mononuclear phagocytes in the presence or absence of catalase (200 U/ml), histamine ([…]) or DPI (3 μM).
Briefly, lymphocytes, pretreated with PJ34 (250 ηM), Z-VAD.fmk (100 μM) or medium, were subjected to mononuclear phagocytes at different Mo/Ly ratios (FIG. 5A) or to different concentrations of H2O2 (FIG. 5C). FIGS. 5A-5D illustrate that PJ34 protected lymphocytes from cell death induced by phagocytes ([…], ratio 1:1, p<0.05) and hydrogen peroxide (FIGS. 5C and 5D, 250 μM, p<0.001).

lymphocytes = assay: Altered mitochondrial transmembrane potential (Mitochondrial Membrane Sensor Kit) and To-Pro-3 staining; format: cell-based, human; settings: H2O2 250 μM or mononuclear phagocytes; PJ34 250 μM as printed
Procedure: A Mitochondrial Membrane Sensor Kit (BD Clontech) was used to identify cells with altered mitochondrial transmembrane potential according to the manufacturer's protocol.
Briefly, lymphocytes exposed to hydrogen peroxide (250 μM) were assayed for altered mitochondrial transmembrane potential and plasma membrane integrity at various time points. Depolarization of the Ψm is seen as an increase in green fluorescence (mitosensor monomers).

human lymphocytes = assay: Large-scale DNA fragmentation, pulsed-field gel electrophoresis; format: cell-based; settings: cells treated with Z-VAD.fmk and 250 μM H2O2, 16 hours
Procedure: Translocation of AIF to the nucleus has been associated with large-scale DNA fragmentation. The observed accumulation of nuclear AIF after challenge with H2O2 led to investigation as to whether large-scale DNA fragmentation accompanied lymphocyte cell death. To that end, lymphocytes were exposed to H2O2, cast into agarose plugs and analyzed using pulsed-field gel electrophoresis. Briefly, human lymphocytes were exposed to 250 μM H2O2 and incubated overnight at 37° C. After 16 hours, the cells were washed twice with PBS and resuspended in PBS. Cells were mixed with an equal volume of 2% low melting point agarose and cast into agarose plugs. After solidifying, plugs were incubated overnight at 56° C. in a buffer containing 0.2% Sodium deoxycholate and 0.5% N-lauroyl sarcosine supplemented with 0.5 mg/ml proteinase K.

NK cells [2] = settings: cited from earlier work
NK cells [3] = settings: histamine and IL-2; cited from earlier work
melanoma cell lines = settings: histamine and IL-2 given prior to inoculation; cited from earlier work
[4] = test system: herpes simplex virus (HSV); settings: cited from earlier work

Row | Molecule | protection of lymphocytes from phagocyte- or hydrogen peroxide-induced (oxidant/ROS-induced) cell death / apoptosis ([1]; pretreatment, PJ34 250 nM, DPQ 3 μM, Z-VAD.fmk 100 μM, overnight incubation with phagocytes or H2O2) | protection from oxidant-induced alterations of Ψm (FIG. 4) (lymphocytes) | DNA fragments on pulsed-field gel (FIG. 7) (human lymphocytes) | protection of lymphocytes from phagocyte-induced cell death (FIG. 1) ([1]; overnight with autologous mononuclear phagocytes, catalase 200 U/ml, histamine, DPI 3 μM, p<0.001, n=4) | monocyte mediated NK cell suppression (NK cells [2]; histamine and IL-2) | NK cell cytotoxicity (NK cells [2]; histamine and IL-2 in the presence of monocytes, relative to IL-2 only) | effect on NK mediated cytotoxicity (NK cells [2]; in the absence of monocytes) | granulocyte mediated NK cell suppression (NK cells [3]) | development of lung metastatic foci (melanoma cell lines) | survival time, combination ([4]; combination of histamine and IL-2) | survival time ([4]; single dose of histamine)
1 | Z-VAD.fmk | only partially protected; also recorded: failed to protect | failed to display any significant protective effect | distinct band (approx. 50 kb) | – | – | – | – | – | – | – | –
2 | NCCc1c[nH]cn1 [histamine] | – | – | – | fully protected | complete or nearly complete abrogation | elevated levels of cytotoxicity | no effect or weakly suppressed | only partially removed | protected | synergistic effect | prolong survival time
